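Test compounds were applied to cells in 96-well plates for 48 hours at 5 doses. GI50 marks 50% less growth.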 The source made the active and inactive calls. Rule as the data show it: active = GI50 up to about 1.1 µM and inactive = higher.
Key:
Test in all cases: NCI-60 cell line screen, 48 h
786-0 = system: 786-0
A498 = system: A498
A549 = system: A549
ACHN = system: ACHN
BT-549 = system: BT-549
CAKI-1 = system: CAKI-1
CCRF-CEM = system: CCRF-CEM
COLO 205 = system: COLO 205
DU-145 = system: DU-145
EKVX = system: EKVX
HCC 2998 = system: HCC 2998
HCT-116 = system: HCT-116
HCT-15 = system: HCT-15
HL-60 = system: HL-60
HOP-62 = system: HOP-62
HOP-92 = system: HOP-92
HT-29 = system: HT-29
Hs-578T = system: Hs-578T
IGROV-1 = system: IGROV-1
K562 = system: K562
KM12 = system: KM12
LOX IMVI = system: LOX IMVI
M14 = system: M14
MCF7 = system: MCF7
MDA-MB-231 = system: MDA-MB-231
MDA-MB-435 = system: MDA-MB-435
MDA-N = system: MDA-N
MOLT-4 = system: MOLT-4
Malme-3M = system: Malme-3M
NCI-H23 = system: NCI-H23
NCI-H460 = system: NCI-H460
NCI-H522 = system: NCI-H522
NCI/ADR-RES = system: NCI/ADR-RES
OVCAR-3 = system: OVCAR-3
OVCAR-4 = system: OVCAR-4
OVCAR-5 = system: OVCAR-5
OVCAR-8 = system: OVCAR-8
PC-3 = system: PC-3
RXF 393 = system: RXF 393
SF-268 = system: SF-268
SF-295 = system: SF-295
SF-539 = system: SF-539
SK-MEL-28 = system: SK-MEL-28
SK-MEL-2 = system: SK-MEL-2
SK-MEL-5 = system: SK-MEL-5
SK-OV-3 = system: SK-OV-3
SN12C = system: SN12C
SNB-19 = system: SNB-19
SNB-75 = system: SNB-75
SR = system: SR
SW-620 = system: SW-620
T47D = system: T47D
TK-10 = system: TK-10
U-251 = system: U-251
UACC-257 = system: UACC-257
UACC-62 = system: UACC-62
UO-31 = system: UO-31
NCI-H226 = system: NCI-H226
RPMI-8226 = system: RPMI-8226

## CSc1ccc(/C=C2\N=C(c3ccccc3)N(/N=C3\C(=O)Nc4ccccc43)C2=O)cc1
786-0
  GI50: > 100 µM (inactive)
A498
  GI50: > 100 µM (inactive)
A549
  GI50: > 100 µM (inactive)
ACHN
  GI50: > 100 µM (inactive)
BT-549
  GI50: > 100 µM (inactive)
CAKI-1
  GI50: > 100 µM (inactive)
CCRF-CEM
  GI50: 92.5 µM (inactive)
COLO 205
  GI50: > 100 µM (inactive)
DU-145
  GI50: > 100 µM (inactive)
EKVX
  GI50: 38.7 µM (inactive)
HCC 2998
  GI50: > 100 µM (inactive)
HCT-116
  GI50: > 100 µM (inactive)
HCT-15
  GI50: > 100 µM
HL-60
  GI50: > 100 µM (inactive)
HOP-62
  GI50: > 100 µM (inactive)
HOP-92
  GI50: > 100 µM (inactive)
HT-29
  GI50: > 100 µM (inactive)
Hs-578T
  GI50: > 100 µM (inactive)
IGROV-1
  GI50: > 100 µM (inactive)
K562
  GI50: > 100 µM (inactive)
KM12
  GI50: > 100 µM (inactive)
LOX IMVI
  GI50: > 100 µM (inactive)
M14
  GI50: > 100 µM (inactive)
MCF7
  GI50: > 100 µM (inactive)
MDA-MB-231
  GI50: > 100 µM (inactive)
MDA-MB-435
  GI50: > 100 µM (inactive)
MDA-N
  GI50: > 100 µM (inactive)
MOLT-4
  GI50: 29.7 µM (inactive)
Malme-3M
  GI50: > 100 µM (inactive)
NCI-H23
  GI50: > 100 µM (inactive)
NCI-H460
  GI50: > 100 µM (inactive)
NCI-H522
  GI50: > 100 µM (inactive)
NCI/ADR-RES
  GI50: > 100 µM (inactive)
OVCAR-3
  GI50: 83.6 µM (inactive)
OVCAR-4
  GI50: > 100 µM (inactive)
OVCAR-5
  GI50: > 100 µM (inactive)
OVCAR-8
  GI50: 88.3 µM (inactive)
PC-3
  GI50: > 100 µM (inactive)
RXF 393
  GI50: > 100 µM (inactive)
SF-268
  GI50: > 100 µM (inactive)
SF-295
  GI50: > 100 µM (inactive)
SF-539
  GI50: > 100 µM (inactive)
SK-MEL-28
  GI50: > 100 µM (inactive)
SK-MEL-2
  GI50: > 100 µM (inactive)
SK-MEL-5
  GI50: > 100 µM (inactive)
SK-OV-3
  GI50: > 100 µM (inactive)
SN12C
  GI50: > 100 µM (inactive)
SNB-19
  GI50: > 100 µM (inactive)
SNB-75
  GI50: > 100 µM (inactive)
SR
  GI50: 22.6 µM (inactive)
SW-620
  GI50: > 100 µM (inactive)
T47D
  GI50: > 100 µM (inactive)
TK-10
  GI50: > 100 µM (inactive)
U-251
  GI50: > 100 µM (inactive)
UACC-257
  GI50: > 100 µM (inactive)
UACC-62
  GI50: > 100 µM (inactive)
UO-31
  GI50: > 100 µM (inactive)

## CCC(C#N)NC(=O)NC(C#N)CC (centres undefined)
786-0
  GI50: > 100 µM (inactive)
A498
  GI50: > 100 µM (inactive)
A549
  GI50: 77.3 µM (inactive)
ACHN
  GI50: > 100 µM (inactive)
BT-549
  GI50: > 100 µM (inactive)
CAKI-1
  GI50: > 100 µM (inactive)
CCRF-CEM
  GI50: > 100 µM (inactive)
COLO 205
  GI50: > 100 µM (inactive)
DU-145
  GI50: > 100 µM (inactive)
EKVX
  GI50: > 100 µM (inactive)
HCC 2998
  GI50: > 100 µM (inactive)
HCT-116
  GI50: > 100 µM (inactive)
HCT-15
  GI50: > 100 µM
HL-60
  GI50: > 100 µM (inactive)
HOP-62
  GI50: > 100 µM (inactive)
HOP-92
  GI50: 31.7 µM (inactive)
HT-29
  GI50: > 100 µM (inactive)
Hs-578T
  GI50: > 100 µM (inactive)
IGROV-1
  GI50: > 100 µM (inactive)
K562
  GI50: 50.9 µM (inactive)
KM12
  GI50: > 100 µM (inactive)
LOX IMVI
  GI50: > 100 µM (inactive)
M14
  GI50: > 100 µM (inactive)
MCF7
  GI50: > 100 µM (inactive)
MDA-MB-231
  GI50: > 100 µM (inactive)
MDA-MB-435
  GI50: > 100 µM (inactive)
MDA-N
  GI50: > 100 µM (inactive)
MOLT-4
  GI50: 28.5 µM (inactive)
Malme-3M
  GI50: > 100 µM (inactive)
NCI-H226
  GI50: > 100 µM (inactive)
NCI-H23
  GI50: > 100 µM (inactive)
NCI-H460
  GI50: > 100 µM (inactive)
NCI-H522
  GI50: > 100 µM (inactive)
NCI/ADR-RES
  GI50: > 100 µM (inactive)
OVCAR-3
  GI50: > 100 µM (inactive)
OVCAR-4
  GI50: 33.6 µM (inactive)
OVCAR-5
  GI50: > 100 µM (inactive)
OVCAR-8
  GI50: > 100 µM (inactive)
PC-3
  GI50: 91.8 µM (inactive)
RPMI-8226
  GI50: > 100 µM (inactive)
RXF 393
  GI50: > 100 µM (inactive)
SF-268
  GI50: > 100 µM (inactive)
SF-295
  GI50: > 100 µM (inactive)
SF-539
  GI50: > 100 µM (inactive)
SK-MEL-2
  GI50: > 100 µM (inactive)
SK-MEL-5
  GI50: > 100 µM (inactive)
SK-OV-3
  GI50: > 100 µM (inactive)
SN12C
  GI50: > 100 µM (inactive)
SNB-19
  GI50: > 100 µM (inactive)
SR
  GI50: > 100 µM (inactive)
SW-620
  GI50: > 100 µM (inactive)
T47D
  GI50: > 100 µM (inactive)
TK-10
  GI50: > 100 µM (inactive)
U-251
  GI50: > 100 µM (inactive)
UACC-257
  GI50: > 100 µM (inactive)
UACC-62
  GI50: > 100 µM (inactive)
UO-31
  GI50: 58.5 µM (inactive)

From ChEMBL document CHEMBL1201862, “PubChem BioAssay data set” (2004)
